Laboratory results published in patent US4882349A, “Pyrrolacetic amides having antiinflammatory activity” (priority 1982, dated 1989).

Key:
[1] = test system: carrageenin-induced oedema; test: carrageenin-induced oedema test (anti-inflammatory activity); type: in vivo, albino male Wistar rats
Experimental: This effect was evaluated by means of an experimental model reproducing acute inflammation: for this purpose the carrageenin- induced oedema test was employed following the method described by C.
Albino male Wistar rats weighing 140-160 g were caged for 10 days at 22±1° C. and given a balanced diet and water ad libitum. Eighteen hours before the experiment the animals were randomized into groups of ten and fasted but with free access to water. Each dose was tested in three groups of rats. Each compound was given either orally, by gavage, or parenterally--intraperitoneal injection--administering as follows:
controls: 0.5% carboxymethylcellulose suspension in physiological saline, 10 ml/kg
treated: suspension of the compounds to be tested in the same vehicle and at the same volume (10 ml/kg) used for the controls at the doses specified below.
One hour after administration of the compounds and vehicle, in order to provoke the oedema for determining the protective effect of the substances under examination, each rat received, by subcutaneous injection into the plantar surface of the left paw, 0.1 ml of 1% sterile carrageenin suspension.

[2] = test system: phenyl-p-quinone-induced writhing (abdominal contractions); test: phenylquinone-induced writhing test (analgesic activity), compound given 30 min before phenyl-p-quinone; type: in vivo, male Wistar rats
Experimental: Male Wistar rats weighing 110±5 g were caged for 10 days at 22±1° C. and given a balanced diet with free access to water. Twenty-four hours before the experiment the animals were randomized into groups of 10 and fasted for 14 hours but with free access to water. Each dose was tested in 3 groups of rats. Thirty minutes following administration either orally or parenterally of the products to be tested and the vehicle alone (0.5% carboxymethyl-cellulose in physiological saline) in the control animals, each rat was given 2 ml of a 5% absolute ethanol aqueous solution containing 0.36% of phenyl-p-quinone (Sigma Chemical Company) in order to provoke writhings. Fifteen minutes after administration of phenyl-p-quinone the number of contractions were counted for 20 minutes. The inhibiting effect of the compounds under examination on the abdominal contractions induced by phenyl-p-quinone was calculated by the following formula: % protection= [formula]
Table V lists the tested compounds, doses, routes of administration and their efficacy expressed as percentage of protection, taking into account that phenyl-p-quinone was administered thirty minutes after the compounds.

[3] = test system: mucus secreted by the respiratory airway; test: antisecretory activity, respiratory mucus secretion; type: in vivo, albino male New Zealand rabbits; settings: vs control group
Experimental: The experiment was carried out in accordance with the method described by Y. Kase (Folia Pharmacol. Jap. 73: 605, 1977) for the purpose of investigating whether or not the compounds under examination determine changes in the volume of the mucus secreted by the respiratory airway. Groups of four albino male New Zealand rabbits (mean weight: 2.5 kg) were used for testing each dose per single group. The animals were anesthetized with urethane (1.1 g/ks b.w.) via the intraperitoneal route and a Y cannula was inserted into the trachea. In order to stimulate mucous secretion a humidifier was connected to the cannula permitting the animals to spontaneously breathe air with 100% humidity at a constant temperature of 39° C. The secreted mucus was collected through another opening in the cannula and measured at three and six hours after administration of the compounds under examination or of the vehicle alone administered in the order of […] (controls). Calculation of the increase or decrease in mucous secretion was based upon the percentage differences between the groups treated with the compounds under examination and the control group. Table VII gives the percentage differences in mucous secretion, and the tested compounds with relative doses and routes of administration.

[4] = test system: cough provoked by mechanical stimulation of the tracheal bifurcation mucosa; test: antitussive activity, mechanically provoked coughing; type: in vivo, albino Guinea-pigs; settings: 1 h after administration
Experimental: The antitussive effect on albino Guinea-pigs weighing 300 g was evaluated using the method described by Y. Kase (Selected Pharmacological Testing Methods, p.363, Marcel Dekker Inc., New York, 1968). Each dose was tested in a group of animals with a Y cannula inserted into the trachea. In order to provoke coughing, the mucosa of the tracheal bifurcation was mechanically stimulated by insertion of a wild boar's hair through an opening in the cannula, while the other opening was connected to a kymograph to plot the amplitude and/or frequency. The reduction in the number of coughs was evaluated at one hour after administration of the compounds under examination by following the plottings for twenty minutes and comparing the response of the control animals.

## COc1ccccc1OC(=O)CNC(=O)Cc1ccc(C(=O)c2ccc(C)cc2)n1C [Compound 1-d, 1-methyl-5-p-toluoylpyrrole-2-acetamidoacetic acid guaiacyl ester]
[1]; 2.5 mg/Kg per os, 2 h
  oedema % inhibition: 50.0%
[1]; 2.5 mg/Kg per os, 4 h
  oedema % inhibition: 34.6%
[1]; 2.5 mg/Kg per os, 6 h
  oedema % inhibition: 23.1%
[1]; 2.5 mg/Kg per os, 24 h
  oedema % inhibition: 0.0%
[1]; 2.5 mg/Kg per os, 48 h
  oedema % inhibition: 0.0%
[1]; 2.5 mg/Kg per os, 72 h
  oedema % inhibition: 0.0%
[1]; 2.5 mg/Kg, Table IV (route not given), 2 h
  oedema % inhibition: 52.3%
[1]; 2.5 mg/Kg, Table IV (route not given), 4 h
  oedema % inhibition: 37.0%
[1]; 2.5 mg/Kg, Table IV (route not given), 6 h
  oedema % inhibition: 26.0%
[1]; 2.5 mg/Kg, Table IV (route not given), 24 h
  oedema % inhibition: 14.0%
[1]; 2.5 mg/Kg, Table IV (route not given), 48 h
  oedema % inhibition: 0.0%
[1]; 2.5 mg/Kg, Table IV (route not given), 72 h
  oedema % inhibition: 0.0%
[1]; 5 mg/Kg per os, 2 h
  oedema % inhibition: 51.4%
[1]; 5 mg/Kg per os, 4 h
  oedema % inhibition: 38.8%
[1]; 5 mg/Kg per os, 6 h
  oedema % inhibition: 24.0%
[1]; 5 mg/Kg per os, 24 h
  oedema % inhibition: 10.0%
[1]; 5 mg/Kg per os, 48 h
  oedema % inhibition: 10.0%
[1]; 5 mg/Kg per os, 72 h
  oedema % inhibition: 6.0%
[1]; 5 mg/Kg, Table IV (route not given), 2 h
  oedema % inhibition: 54.0%
[1]; 5 mg/Kg, Table IV (route not given), 4 h
  oedema % inhibition: 40.0%
[1]; 5 mg/Kg, Table IV (route not given), 6 h
  oedema % inhibition: 24.6%
[1]; 5 mg/Kg, Table IV (route not given), 24 h
  oedema % inhibition: 10.1%
[1]; 5 mg/Kg, Table IV (route not given), 48 h
  oedema % inhibition: 0.0%
[1]; 5 mg/Kg, Table IV (route not given), 72 h
  oedema % inhibition: 0.0%
[1]; 10 mg/Kg per os, 2 h
  oedema % inhibition: 61.5%
[1]; 10 mg/Kg per os, 4 h
  oedema % inhibition: 41.2%
[1]; 10 mg/Kg per os, 6 h
  oedema % inhibition: 34.9%
[1]; 10 mg/Kg per os, 24 h
  oedema % inhibition: 12.6%
[1]; 10 mg/Kg per os, 48 h
  oedema % inhibition: 14.0%
[1]; 10 mg/Kg per os, 72 h
  oedema % inhibition: 9.0%
[1]; 10 mg/Kg, Table IV (route not given), 2 h
  oedema % inhibition: 60.0%
[1]; 10 mg/Kg, Table IV (route not given), 4 h
  oedema % inhibition: 46.9%
[1]; 10 mg/Kg, Table IV (route not given), 6 h
  oedema % inhibition: 36.7%
[1]; 10 mg/Kg, Table IV (route not given), 24 h
  oedema % inhibition: 16.5%
[1]; 10 mg/Kg, Table IV (route not given), 48 h
  oedema % inhibition: 6.3%
[1]; 10 mg/Kg, Table IV (route not given), 72 h
  oedema % inhibition: 0.0%
[1]; 20 mg/Kg per os, 2 h
  oedema % inhibition: 62.1%
[1]; 20 mg/Kg per os, 4 h
  oedema % inhibition: 48.7%
[1]; 20 mg/Kg per os, 6 h
  oedema % inhibition: 32.8%
[1]; 20 mg/Kg per os, 24 h
  oedema % inhibition: 26.6%
[1]; 20 mg/Kg per os, 48 h
  oedema % inhibition: 25.9%
[1]; 20 mg/Kg per os, 72 h
  oedema % inhibition: 3.3%
[1]; 20 mg/Kg, Table IV (route not given), 2 h
  oedema % inhibition: 65.0%
[1]; 20 mg/Kg, Table IV (route not given), 4 h
  oedema % inhibition: 50.4%
[1]; 20 mg/Kg, Table IV (route not given), 6 h
  oedema % inhibition: 48.6%
[1]; 20 mg/Kg, Table IV (route not given), 24 h
  oedema % inhibition: 23.5%
[1]; 20 mg/Kg, Table IV (route not given), 48 h
  oedema % inhibition: 9.1%
[1]; 20 mg/Kg, Table IV (route not given), 72 h
  oedema % inhibition: 8.4%
[1]; 50 mg/Kg per os, 2 h
  oedema % inhibition: 66.9%
[1]; 50 mg/Kg per os, 4 h
  oedema % inhibition: 66.8%
[1]; 50 mg/Kg per os, 6 h
  oedema % inhibition: 57.8%
[1]; 50 mg/Kg per os, 24 h
  oedema % inhibition: 30.9%
[1]; 50 mg/Kg per os, 48 h
  oedema % inhibition: 36.3%
[1]; 50 mg/Kg per os, 72 h
  oedema % inhibition: 38.6%
[1]; 50 mg/Kg, Table IV (route not given), 2 h
  oedema % inhibition: 69.7%
[1]; 50 mg/Kg, Table IV (route not given), 4 h
  oedema % inhibition: 74.0%
[1]; 50 mg/Kg, Table IV (route not given), 6 h
  oedema % inhibition: 67.2%
[1]; 50 mg/Kg, Table IV (route not given), 24 h
  oedema % inhibition: 34.5%
[1]; 50 mg/Kg, Table IV (route not given), 48 h
  oedema % inhibition: 20.8%
[1]; 50 mg/Kg, Table IV (route not given), 72 h
  oedema % inhibition: 15.3%
[1]; 100 mg/Kg per os, 2 h
  oedema % inhibition: 68.0%
[1]; 100 mg/Kg per os, 4 h
  oedema % inhibition: 74.0%
[1]; 100 mg/Kg per os, 6 h
  oedema % inhibition: 67.5%
[1]; 100 mg/Kg per os, 24 h
  oedema % inhibition: 40.3%
[1]; 100 mg/Kg per os, 48 h
  oedema % inhibition: 38.0%
[1]; 100 mg/Kg per os, 72 h
  oedema % inhibition: 33.0%
[1]; 100 mg/Kg, Table IV (route not given), 2 h
  oedema % inhibition: 76.5%
[1]; 100 mg/Kg, Table IV (route not given), 4 h
  oedema % inhibition: 79.5%
[1]; 100 mg/Kg, Table IV (route not given), 6 h
  oedema % inhibition: 73.4%
[1]; 100 mg/Kg, Table IV (route not given), 24 h
  oedema % inhibition: 42.4%
[1]; 100 mg/Kg, Table IV (route not given), 48 h
  oedema % inhibition: 33.0%
[1]; 100 mg/Kg, Table IV (route not given), 72 h
  oedema % inhibition: 31.6%
[2]; 5 mg/Kg i.p.
  % Protection: 22.1%
[2]; 5 mg/Kg per os
  % Protection: 29.1%
[2]; 10 mg/Kg i.p.
  % Protection: 56.0%
[2]; 10 mg/Kg per os
  % Protection: 53.4%
[2]; 20 mg/Kg i.p.
  % Protection: 87.0%
[2]; 20 mg/Kg per os
  % Protection: 80.2%
[3]; 50 mg/Kg i.p., 3 h
  % difference in mucus secretion: -5%
[3]; 50 mg/Kg i.p., 6 h
  % difference in mucus secretion: -5%
[3]; 50 mg/Kg per os, 3 h
  % difference in mucus secretion: 0.0%
[3]; 50 mg/Kg per os, 6 h
  % difference in mucus secretion: 0.0%
[3]; 75 mg/Kg i.p., 3 h
  % difference in mucus secretion: -18%
[3]; 75 mg/Kg i.p., 6 h
  % difference in mucus secretion: -15%
[3]; 75 mg/Kg per os, 3 h
  % difference in mucus secretion: -15%
[3]; 75 mg/Kg per os, 6 h
  % difference in mucus secretion: -10%
[3]; 100 mg/Kg i.p., 3 h
  % difference in mucus secretion: -38%
[3]; 100 mg/Kg i.p., 6 h
  % difference in mucus secretion: -30%
[3]; 100 mg/Kg per os, 3 h
  % difference in mucus secretion: -32%
[3]; 100 mg/Kg per os, 6 h
  % difference in mucus secretion: -27%
[4]; 50 mg/Kg i.p.
  % inhibition, cough amplitude: 12%
  % inhibition, cough frequency: 15%
[4]; 50 mg/Kg per os
  % inhibition, cough amplitude: 10%
  % inhibition, cough frequency: 18%
[4]; 75 mg/Kg i.p.
  % inhibition, cough amplitude: 20%
  % inhibition, cough frequency: 36%
[4]; 75 mg/Kg per os
  % inhibition, cough amplitude: 22%
  % inhibition, cough frequency: 29%
[4]; 100 mg/Kg i.p.
  % inhibition, cough amplitude: 30%
  % inhibition, cough frequency: 45%
[4]; 100 mg/Kg per os
  % inhibition, cough amplitude: 30%
  % inhibition, cough frequency: 49%
